We go through 20 molecules from paper PMC4743981, “Immunomodulatory and Anti-Inflammatory Activities of Chicken Cathelicidin-2 Derived Peptides” (PLoS ONE, 2016).

By MIC is commonly meant the lowest concentration found to suppress growth. A lower MIC goes with greater potency.

Like-named read-outs stand apart in the source and are kept apart here. Ends that are not written are not given here.

Assay [1] has as its system Avian pathogenic Escherichia coli O78. The class given is cell-based. The settings on record: Avian pathogenic O78, 3 h. As to the method:
Avian pathogenic Escherichia coli O78 (field isolate, Zoetis, Kalamazoo, MI) was cultured in Mueller-Hinton broth at 37°C. Overnight grown cultures were diluted to a density of 2×10^6 CFU/ml in Mueller-Hinton broth (non cation-adjusted, Oxoid Ltd., Hampshire, UK) and mixed in a 96 wells polypropylene microwell plate at a 1:1 ratio with peptide (final concentration: 1.25 to 40 μM). After 3 h incubation samples were serially diluted in medium, plated on trypton soy agar (Oxoid Ltd., Hampshire, UK) media and counted after 24 h incubation at 37°C.

Assay [2] addresses S. minnesota LPS. Briefly: LPS binding affinity, dansyl-polymyxin B displacement. Further details: species or system Salmonella minnesota. The settings on record: concentration of peptide needed to displace 50% of Dansyl-labeled polymyxin from S. minnesota LPS micelles, unsubstituted (Phe) peptide, read-out: I50 (Phe). As to the method:
Dansyl-polymyxin B was prepared and quantitated as described by Schindler and Teuber. Subsequently, the capacity of peptides to displace dansyl-labeled polymyxin B complexed to S. minnesota LPS was determined according to Moore et al..

Assay [3] relates to CXCLi2/IL-8. Briefly: Peptide-induced CXCLi2 transcription in HD11 cells (real time PCR). Type of assay: cell-based, chicken. The settings on record: 1 to 20 μM peptide, 4 h or 24 h, real time QPCR. As to the method:
(§1) HD11 cells were a kind gift of dr. Jos van Putten (department of Infectious diseases and Immunology, Utrecht University, The Netherlands). HD11 cells were seeded in 96 wells tissue culture treated plates (1×10^5 cell/mL) and incubated for 18 h at 37°C (5% CO2) before treatment. For peptide-induced effects cells were treated with RPMI-1640 medium containing 20 μM peptide during 4 h or 24 h. In LPS neutralization experiments, final concentrations of 50–100 ng/ml LPS were pre-incubated with or without 20 μM peptide for 30 min at 37°C (5% CO2), applied to the cells and incubated for 4 h. To examine neutralization of LPS-primed cells HD11 cells were exposed for 30 min to 100–1000 ng/ml S. minnesota LPS, washed once and incubated during 4 h in the absence or presence of 20 μM Peptide. Supernatants were collected for the determination of nitric oxide production (24 h incubations only). […] RNA quantity and purity were tested using a Nanodrop ND-1000 spectrophometer (Nanodrop Technologies, Wilmington, DE). Cytotoxicity of peptides was determined using the cell viability reagent WST-1 (Roche) as described previously, and by measuring LDH release after 24 h exposure. LDH activities in supernatant cell fractions were measured using the Cytoxicity Detection Kit PLUS (Roche) according the manufacturers recommendations and expressed as the % of released LDH relative to the total LDH activity. […]
For orientation: Real-time PCR tracks product formation cycle by cycle.

The test system of assay [4] is MCP-3. The assay can be described thus: Peptide-induced MCP-3 transcription in HD11 cells (real time PCR). The class given is cell-based, chicken. The settings on record: 1 to 20 μM peptide, 4 h or 24 h, real time QPCR. As to the method: as §1
The test system of assay [5] is NO production by HD11 cells. The assay can be described thus: Peptide-induced nitric oxide production by HD11 cells (Griess). The class given is cell-based, chicken. The settings on record: 24 h exposure to 20 μM peptide without LPS, data not shown. As to the method:
HD11 cells were a kind gift of dr. Jos van Putten (department of Infectious diseases and Immunology, Utrecht University, The Netherlands). HD11 cells were seeded in 96 wells tissue culture treated plates (1×10^5 cell/mL) and incubated for 18 h at 37°C (5% CO2) before treatment. For peptide-induced effects cells were treated with RPMI-1640 medium containing 20 μM peptide during 4 h or 24 h. In LPS neutralization experiments, final concentrations of 50–100 ng/ml LPS were pre-incubated with or without 20 μM peptide for 30 min at 37°C (5% CO2), applied to the cells and incubated for 4 h. […] RNA quantity and purity were tested using a Nanodrop ND-1000 spectrophometer (Nanodrop Technologies, Wilmington, DE). Cytotoxicity of peptides was determined using the cell viability reagent WST-1 (Roche) as described previously, and by measuring LDH release after 24 h exposure. LDH activities in supernatant cell fractions were measured using the Cytoxicity Detection Kit PLUS (Roche) according the manufacturers recommendations and expressed as the % of released LDH relative to the total LDH activity.
Nitric oxide production was assessed as the accumulation of nitrite (NO2^−) in cell supernatants during a 24 h incubation period. Nitrite concentrations were determined using a colorimetric reaction with the Griess reagent using (from 1 to 50 μM) sodium nitrite dissolved in water as standards. […]
On the technique in general: Nitrite, measured by Griess reagent, commonly stands in for NO production.

The test system of assay [6] is IL-1β transcription in LPS-primed HD11 cells. The assay can be described thus: Neutralization of IL-1β transcription in LPS-primed HD11 cells. Type of assay: cell-based, chicken. Particulars: HD11 cells primed 30 min with S. minnesota LPS (100–1000 ng/ml), washed once, 4 h with 20 μM peptide; real time QPCR. As to the method: as §1

IRRFRPKVTITIQ-NH2 [C(9–21)] came in with an MIC in assay [1] of 8.3 ± 2.9 µM.
Same read-out and setting: the figure for RKIRRFRPKVTITIQ-NH2 [C(7–21)] is 8.3 ± 2.9 µM; for RRWRPKVTITIQ-NH2 [C(10–21)W] it is 11.7 ± 7.6 µM.
On the same count and under the same terms, next, RWLRKIRRWRPKVTITIQ-NH2 [C(4–21)W2]: 8.3 ± 2.9 µM; RFGRFLRKIRRFRPKVTITIQGSARF-NH2 [CATH-2]: 5.0 ± 0.0 µM.
Regarding RFGRFLRKIRRFRPK [C(1–15)], the MIC in assay [1] amounted to 16.7 ± 5.8 µM.
The molecule RFRPKVTITIQ-NH2 [C(11–21)] gave an MIC in assay [1] of 8.3 ± 2.9 µM.
As for RYLRKIRRYRPKVTITIQ-NH2 [C(4–21)Y2], the minimum inhibitory concentration (MIC) in assay [1] worked out at 10.0 ± 0.0 µM.
On to `CC[C@H](C)[C@H](NC(=O)[C@H](CCCCN)NC(=O)[C@H](CCC(=O)O)NC(=O)[C@H](CCCCN)NC(=O)[C@H](CO)NC(=O)[C@H](CCCCN)NC(=O)[C@H](CCCNC(=N)N)NC(=O)[C@H](Cc1ccccc1)NC(=O)[C@H](Cc1ccccc1)NC(=O)[C@H](CC(=O)O)NC(=O)CNC(=O)[C@H](CC(C)C)NC(=O)[C@@H](N)CC(C)C)C(=O)NCC(=O)N[C@@H](CCCCN)C(=O)N[C@@H](CCC(=O)O)C(=O)N[C@@H](Cc1ccccc1)C(=O)N[C@@H](CCCCN)C(=O)N[C@@H](CCCNC(=N)N)C(=O)N[C@H](C(=O)N[C@H](C(=O)N[C@@H](CCC(N)=O)C(=O)N[C@@H](CCCNC(=N)N)C(=O)N[C@H](C(=O)N[C@@H](CCCCN)C(=O)N[C@@H](CC(=O)O)C(=O)N[C@@H](Cc1ccccc1)C(=O)N[C@@H](CC(C)C)C(=O)N[C@@H](CCCNC(=N)N)C(=O)N[C@@H](CC(N)=O)C(=O)N[C@@H](CC(C)C)C(=O)N[C@H](C(=O)N1CCC[C@H]1C(=O)N[C@@H](CCCNC(=N)N)C(=O)N[C@H](C(=O)N[C@@H](CCC(=O)O)C(=O)N[C@@H](CO)C(=O)O)[C@@H](C)O)C(C)C)[C@@H](C)CC)C(C)C)[C@@H](C)CC` [LL37], for which the IC50 in assay [2] stood at 0.28 ± 0.04 µM. In assay [3], the “induction of CXCLi2 transcription (in words)” value was “inducing the transcription”. The “induction of MCP-3 transcription (in words)” value in assay [4] is “inducing the transcription”. The “increase of NO levels” value in assay [5] came to 2 fold. In assay [6], the “inhibition of IL-1β transcription induced by LPS priming (in words)” value is reported as “strongly inhibited”.
RKIRRYRPKVTITIQ-NH2 [C(7–21)Y] displayed an MIC in assay [1] of 11.7 ± 7.6 µM.
The same measure, in the same setting: next, RRYRPKVTITIQ-NH2 [C(10–21)Y]: 16.7 ± 5.8 µM; RRFRPKVTITIQ-NH2 [C(10–21)]: 6.7 ± 2.9 µM; RYGRYLRKIRRYRPKVTITIQ-NH2 [C(1–21)Y3]: 10.0 ± 0.0 µM.
In turn, RKIRRWRPKVTITIQ-NH2 [C(7–21)W] returned a minimum inhibitory concentration (MIC) in assay [1] of 13.3 ± 5.8 µM.
Still for that read-out and setting: next, RFGRFLRKIRRFRPKVTITIQ-NH2 [C(1–21)]: 13.3 ± 5.8 µM; FLRKIRRFRPKVTITIQ-NH2 [C(5–21)]: 8.3 ± 5.8 µM; RWGRWLRKIRRWRPKVTITIQ-NH2 [C(1–21)W3]: 13.3 ± 5.8 µM.
The same measure, in the same setting: next, RFLRKIRRFRPKVTITIQ-NH2 [C(4–21)]: 6.7 ± 2.9 µM; KIRRFRPKVTITIQ-NH2 [C(8–21)]: 11.7 ± 7.6 µM.
For the molecule Polymyxin B, the IC50 in assay [2] (listed as polymyxin B) came out at 4.19 µM; in assay [2] it was 3.46 ± 0.17 µM.
